A short description of data set [1]: Solubility studies of benzimidazoles (triclabendazole, oxfendazole, albendazole, ricobendazole) in different organic solvents. The format is physicochemical. The protocol:
As a comparison trials were conducted to determine the solubility of various members of the benzimidazole family in different solvents.
But more importantly it was discovered that triclabendazole is extremely soluble in 2-pyrrolidone and PEG 400 with more than 500 mg of triclabendazole capable of being dissolved in a ml of these solvents. This is particularly advantageous as it allows for formulations of low volume to be formulated for delivery to cattle and other animals.

A short description of data set [2]: Solubility studies of triclabendazole in different alcohols. The format is physicochemical.
Where [3] appears, read: solvents such as benzyl alcohol, propylene glycol, NMP, 2-pyrollidone, PEG, glycerol formal and butyl dioxitol.

Where two headings read alike, the source gives them in different places.

As for `CCCSc1ccc2nc(NC(=O)OC)[nH]c2c1` [albendazole], in data set [1] (setting [3]), the “Solubility (in words)” value is on record as “either insoluble or so insignificantly soluble”.
Turning to `CCC[S+]([O-])c1ccc2[nH]c(NC(=O)OC)nc2c1` (centres unmarked) [ricobendazole], in data set [1] (setting [3]), the “Solubility (in words)” value was “either insoluble or so insignificantly soluble”.
`CSc1nc2cc(Cl)c(Oc3cccc(Cl)c3Cl)cc2[nH]1` [triclabendazole, 5-Chloro-6-(3,3-dichlorophenoxy)-2-methylthio-1H-benzimidazole]: in data set [1], the “Solubility (in words)” value is reported as “more soluble generally”. Also, the “Quantity dissolved in 10 ml solvent” value in data set [1] (in 10 ml 2-pyrrolidone, flowable in nature) is recorded as 10.0 g (flowable; in data set [1] (in 10 ml Benzyl Alcohol, max solubility), 5.0 g (Max; in data set [1] (in 10 ml DGBE (butyl dioxitol), max solubility), 2.0 g (Max; in data set [1] (in 10 ml Glyceryl Formal, max solubility) it was 1 g (Max; in data set [1] (in 10 ml NMP, max solubility), 4.5 g (Max; in data set [1] (in 10 ml PEG400, flowable in nature), 10.0 g (flowable. Moreover, in data set [1] (in 10 ml Propylene Glycol, max solubility), the “Quantity dissolved in 10 ml solvent” value is 1.5 g (Max. Moreover, the “Amount dissolved” value is 357.14 mg/mL in data set [1] (solvent Benzyl Alcohol, max solubility); 166.66 mg/mL in data set [1] (solvent DGBE (butyl dioxitol), max solubility); 90.91 mg/mL in data set [1] (solvent Glyceryl Formal, max solubility); 321.43 mg/mL in data set [1] (solvent NMP (N-methyl pyrrolidone), max solubility); 136.36 mg/mL in data set [1] (solvent Propylene Glycol, max solubility); 117.5 mg/mL in data set [2] (solvent 1-butanol). Besides, the “Amount dissolved” value in data set [2] (solvent 1-hexanol) was 117.5 mg/mL; in data set [2] (solvent Ethyl alcohol) it was 88.88 mg/mL; in data set [2] (solvent Isopropyl alcohol), 117.5 mg/mL; in data set [2] (solvent Methyl alcohol), 88.88 mg/mL. The “Quantity dissolved in solvent” value came out at 2 gm/15 ml in data set [2] (solvent 1-butanol); 2 gm/15 ml in data set [2] (solvent 1-hexanol); 2 gm/20 ml in data set [2] (solvent Ethyl alcohol); 2 gm/15 ml in data set [2] (solvent Isopropyl alcohol); 2 gm/20 ml in data set [2] (solvent Methyl alcohol).
As to `COC(=O)Nc1nc2ccc([S+]([O-])c3ccccc3)cc2[nH]1` (centres unmarked) [oxfendazole], in data set [1], the “Solubility (in words)” value is recorded as “either insoluble or so insignificantly soluble”.

Values taken from patent publication US20080249153A1, “ANTHELMINTIC FORMULATIONS” (priority 2005, published 2008).
